{
  "source": "patent US8034766B2",
  "about": "(priority 2006, dated 2011)",
  "origin": "cited, not measured here",
  "test_system": "prion",
  "conditions": "in vivo",
  "data": [
    {"compound": "CC(=O)OO", "note": "[Peracetic acid, peracetic acid]", "values": [
      {"measurement": "onward transmission rate following treatment", "result": 100, "unit": "%"}
    ]}
  ]
}
